Source: US20100324303A1, “Use of Tetramic Acid Derivatives for Controlling Animal Pests After Treatment of the Trunk, the Branches, the Influorescences or the Buds” (Bayer CropScience AG, priority 2008, published 2010)
Where two headings read alike, the source gives them in different places.

Legend:
Type in all cases: in vivo
[1] = test system: banana flower thrips (Thrips hawaiiensis); experiment: Flower bud injection on banana trees against banana flower thrips; details: banana cv. Cavendish, 80 ml injected into flower buds, destruction of population on influorescences and bunches, imidacloprid (100 SL) 0.1 g a.i./l, Example (II) (100 OD) 0.3 g a.i./l; for Activity in % Abbott 3 d: 3 days after treatment; for Activity in % Abbott 91 d: 91 days after treatment
Description: Banana trees cv. “Cavendish” are treated in three replications against banana flower thrips (Thrips hawaiiensis). Here, the active substances Example (II) (100 OD) are tested versus the commercial standard imidacloprid (100 SL) at the application rates specified. The application is carried out by injecting in each case 80 ml of injection solution into the flower buds. In each case three flower buds are treated. The evaluation is effected 3 and 91 days after the treatment by scoring the destruction of the population on the influorescences and bunches.

[2] = test system: pineapple mealybug Dysmicoccus brevipes; experiment: Pseudostem (and foliar) spray application on banana trees against pineapple mealybug; details: banana cv. Cavendish, 50 ml on leaves and 50 ml on peeled stem, mealybug on the stem, Banole oil 30 g/l, chlorpyrifos-methyl 0.8 g/l, (II) SC 240 0.3 g/l in tank mix with 0.025% Hoestick
Description: Banana trees (growth stage BBCH 1130) cv. “Cavendish” consisting of mother plant and sucker are treated in three replications following foliar treatment against Aspidiotus destructor and against the pineapple mealybug Dysmicoccus brevipes by pseudostem application. To this end, in each case 100 ml of spray solution are applied, in each case 50 ml being sprayed onto the leaves and 50 ml onto the stem. Before the stem application, the outermost stem layer is first peeled off, which is general practice. Here, the active substance (II) (SC 240) is tested in a tank mix along with 0.025% Hoestick (XL 500) versus the commercial standards chlorpyrifos-methyl (500 EC) and liquid paraffin (Banole oil) (EC 600).
The evaluation is carried out 3, 7, 14 and 22 days after the treatment by scoring the destruction of the pineapple mealybug on the stem.

[3] = test system: California red scale Aonidiella aurantii; experiment: Stem application by painting on to orange trees against California red scale; details: 205 days after treatment, orange trees cv. Valencia, infestation on the fruits, imidacloprid 2 g a.i./tree, Example (II) (SC 240) 4 g a.i./tree
Description: Young orange trees cv. “Valencia” which are approximately 5 years old are treated in three applications against the California red scale Aonidiella aurantii after stem application by painting on the active substances. Here, the active substance (II) (SC 240) is tested versus the commercial standard imidacloprid at the application rates detailed. The evaluation is carried out 205 days after the treatment by scoring the infestation on the fruits.

Row | SMILES | Activity in % Abbott 3 d [1] [% Abbott] | Activity in % Abbott 91 d [1] [% Abbott] | inhibition at 300 µg/mL ([2]; SC240, 72 h, 3 days after treatment, read-out: Activity (%) Abbott 3 d) [%] | inhibition at 300 µg/mL ([2]; SC240, 168 h, 7 days after treatment, read-out: Activity (%) Abbott 7 d) [%] | inhibition at 300 µg/mL ([2]; SC240, 336 h, 14 days after treatment, read-out: Activity (%) Abbott 14 d) [%] | inhibition at 300 µg/mL ([2]; SC240, 528 h, 22 days after treatment, read-out: Activity (%) Abbott 22 d) [%] | Efficacy (% Abbott) [3] [% Abbott]
1 | CCOC(=O)OC1=C(c2cc(C)ccc2C)C(=O)N[C@]12CC[C@@H](OC)CC2 [Example (II)] | 66.7 | 100 | 81.2 | 92.3 | 96.4 | 96.7 | 100
2 | O=[N+]([O-])NC1=NCCN1Cc1ccc(Cl)nc1 [Imidacloprid, imidacloprid, reference compound] | 98.4 | 100 | – | – | – | – | 100
